Earlier results, collected in article PMC5572761 (Journal of medicinal chemistry, 2017).

Tested on: α3β4 nAChR
Conditions: read-out: IC50 [nM] α3β4; cited from earlier work

## α-conotoxin AuIB [Peptide 17]
  IC50: 750 nM
